# Laboratory results reported in US7863334B2, “Guanylhydrazone compounds, compositions, methods of making and using” (Cytokine PharmaSciences, Inc., priority 2004, dated 2011).
# Tests used:
# [1] = tested on: TNFα release from LPS-induced RAW 264.7 cells; experiment: Inhibition of LPS-induced TNFα release from RAW 264.7 cells (ELISA); assay type: cell-based; conditions: RAW 264.7 murine macrophage cells, 1 hour pretreatment, 100 ng/mL LPS, 24 hours
# Description: (§1) The present inventors measured the ability of eight test articles to inhibit LPS-induced nitric oxide and TNFα secretion from murine macrophage cells.
# (§2) The studies were conducted in RAW 264.7 cultures.
# (§3) RAW 264.7 murine macrophage cells (ATCC, TIB-71) were maintained at 5% CO2, 37° C. in RPMI media (Fisher 15-040-CV, 1 mg/L glutathione) with 10% fetal bovine serum (fbs, Fisher, lot 05069F) plus 2 mM L-glutamine and penicillin/streptomycin. The cells were subcultured every two to three days. Cells were plated in tissue culture treated 96 well plates at a density of 1×10^5 cells/well and incubated at 5% CO2, 37° C. for at least one hour prior to initiation of the assay. The cells were washed with RPMI with 10% fbs prior to the initiation of the assay.
# The compounds were weighed, dissolved in DMSO for stock solutions of 10 mg/mL and serially diluted in RPMI. The plated RAW 264.7 cells were pretreated in duplicate with the test compounds, control (CNI-1493) or vehicle for 1 hour at final concentrations of 0, 0.1, 1.0, 10, and 100 μg/mL. The cells were stimulated with 100 ng/mL LPS (E. coli 0111:B4) and incubated at 5% CO2, 37° C. for 24 hours. The media was collected and stored at −20° C.
# [2] = tested on: nitric oxide release from LPS-induced RAW 264.7 cells; experiment: Inhibition of LPS-induced nitric oxide (nitrite) release from RAW 264.7 cells (Griess reagent); assay type: cell-based; conditions: RAW 264.7 murine macrophage cells, 1 hour pretreatment, 100 ng/mL LPS, 24 hours
# Description: as §1, §2, §3
# The compounds were weighed, dissolved in DMSO for stock solutions of 10 mg/mL and serially diluted in RPMI. The plated RAW 264.7 cells were pretreated in duplicate with the test compounds, control (CNI-1493) or vehicle for 1 hour at final concentrations of 0, 0.1, 1.0, 10, and 100 μg/mL. […]
# To 50 μL of cell-free media, 50 μL of Griess Reagent (1 part 0.1% naphthylethylenediamine diHCl, 1 part 1.32% sulfanilimide in 60% acetic acid) was added and incubated for no more than 5 minutes at ambient temperature. The samples were read on a microtiter plate reader at 540 nm and compared to a 0.1-5 nmol nitrite standard curve.
smiles,measurement,setting,value
C/C(=N\N=C(N)N)c1cc(NC(=O)CCCCCCCCC(=O)Nc2cc(/C(C)=N/N=C(N)N)cc(/C(C)=N/N=C(N)N)c2)cc(/C(C)=N/N=C(N)N)c1.Cl.Cl.Cl.Cl [CNI-1493],IC50 for inhibition of release of TNFα,[1],approximately 8 μg/mL
same,IC50 for inhibition of nitric oxide release,[2],approximately 5.5 μg/mL
